According to patent US6534447B1, “Herbicidal pyridine compounds” (BASF Aktiengesellschaft, priority 1999, dated 2003):

Experiments:
Format in all cases: in vivo
[1] = tested on: Abutilon theophrasti (ABUTH, velvetleaf); assay: Pre-emergence herbicidal evaluation; details: 3 weeks after treatment
From the text: (§1) The pre-emergence herbicidal activity of the compounds of the present invention is exemplified by the following test in which the seeds of a variety of monocotyledonous and dicotyledonous plants are seperately mixed with potting soil and planted on top of approximately one inch of soil in separate post. After planting, the pots are sprayed with the selected aqueous acetone solution. containing test compound in sufficient quantity to provide the equivalent of about 0.025 to 0.4 kg per hectare of test compound per pot. The treated pots are then placed on greenhouse benches, watered and cared for in accordance with conventional greenhouse procedures. From 3 weeks after treatment, the tests are terminated and each pot is examined and rated according to the rating system set forth below. [table] [table]

[2] = tested on: Alopecurus myosuroides (ALOMY, black grass); assay: Pre-emergence herbicidal evaluation; details: 3 weeks after treatment
From the text: as §1

[3] = tested on: Echinochloa grus galli (ECHCG, barnyard grass); assay: Pre-emergence herbicidal evaluation; details: 3 weeks after treatment
From the text: as §1

[4] = tested on: Galium aparine (GALAP, cleaver); assay: Pre-emergence herbicidal evaluation; details: 3 weeks after treatment
From the text: as §1

[5] = tested on: Ipomoea hederacea (IPOHE, morning glory); assay: Pre-emergence herbicidal evaluation; details: 3 weeks after treatment
From the text: as §1

[6] = tested on: Matricaria inodora (MATIN, mayweed); assay: Pre-emergence herbicidal evaluation; details: 3 weeks after treatment
From the text: as §1

[7] = tested on: Setaria viridis (SETVI, green foxtail); assay: Pre-emergence herbicidal evaluation; details: 3 weeks after treatment
From the text: as §1

[8] = tested on: Stellaria media (STEME, chickweed); assay: Pre-emergence herbicidal evaluation; details: 3 weeks after treatment
From the text: as §1

[9] = tested on: Glycine max (GLXMA, soyabeans); assay: Pre-emergence herbicidal evaluation (crop); details: 3 weeks after treatment
From the text: as §1

[10] = tested on: Triticum aestivum (TRZAW, winter wheat); assay: Pre-emergence herbicidal evaluation (crop); details: 3 weeks after treatment
From the text: as §1

Zea mays (ZEAMX, maize) = assay: Pre-emergence herbicidal evaluation (crop); details: 3 weeks after treatment
From the text: as §1

[11] = tested on: Abutilon theophrasti (ABUTH, velvetleaf); assay: Post-emergence herbicidal evaluation; details: 3 weeks after treatment
Method: (§2) These acetone solutions are diluted with water and the resulting formulations applied at dosage levels equivalent of about 0.025 to 0.4 kg per hectare of test compound per pot. After spraying the plants are placed on greenhouse benches and are cared for in the usual manner, commensurate with conventional greenhouse practices. From 3 weeks after treatment, the seedling plants are examined and rated according to the rating system provided above. A rating 0 indicates growth as untreated control, a rating 9 indicates death.

[12] = tested on: Alopecurus myosuroides (ALOMY, black grass); assay: Post-emergence herbicidal evaluation; details: 3 weeks after treatment
Method: as §2

[13] = tested on: Dolium multiflorum (LOLMU, ryegrass); assay: Post-emergence herbicidal evaluation; details: rate 0.100 kg/ha, 3 weeks after treatment
Method: as §2

[14] = tested on: Echinochloa grus galli (ECHCG, barnyard grass); assay: Post-emergence herbicidal evaluation; details: 3 weeks after treatment
Method: as §2

[15] = tested on: Galium aparine (GALAP, cleaver); assay: Post-emergence herbicidal evaluation; details: 3 weeks after treatment
Method: as §2

[16] = tested on: Ipomoea hederacea (IPOHE, morning glory); assay: Post-emergence herbicidal evaluation; details: 3 weeks after treatment
Method: as §2

[17] = tested on: Matricaria inodora (MATIN, mayweed); assay: Post-emergence herbicidal evaluation; details: 3 weeks after treatment
Method: as §2

[18] = tested on: Setaria viridis (SETVI, green foxtail); assay: Post-emergence herbicidal evaluation; details: 3 weeks after treatment
Method: as §2

[19] = tested on: Stellaria media (STEME, chickweed); assay: Post-emergence herbicidal evaluation; details: 3 weeks after treatment
Method: as §2

eight weed species = assay: Pre-emergence herbicidal evaluation, overall weed control
From the text: as §1, with “below.” for “below. [table] [table]”
Thus, there is evidence for the good potential of the compounds of the invention for excellent cross spectrum control of both grasses and broadleaf weeds in key crops.

In the case of `Cc1cc(OCCCSC(F)(F)F)nc(Oc2cc(C(F)(F)F)nn2C)c1` [Example 4], the ABUTH rating ([1]; rate 0.025 kg/ha) is reported as 3 (3 - Moderate effect), the ABUTH rating ([1]; rate 0.100 kg/ha) is reported as 7 (7 - Good herbicidal effect) and the ABUTH rating ([1]; rate 0.400 kg/ha) is reported as 9 (9 - Complete kill). The ALOMY rating ([2]; rate 0.025 kg/ha) was 5 (5 - Definite injury), the ALOMY rating ([2]; rate 0.100 kg/ha) was 8 (8 - Approaching complete kill) and the ALOMY rating ([2]; rate 0.400 kg/ha) was 8 (8 - Approaching complete kill). The ECHCG rating ([3]; rate 0.025 kg/ha) was 3 (3 - Moderate effect), the ECHCG rating ([3]; rate 0.100 kg/ha) was 8 (8 - Approaching complete kill) and the ECHCG rating ([3]; rate 0.400 kg/ha) was 9 (9 - Complete kill). The GALAP rating ([4]; rate 0.025 kg/ha) was 4 (4 - Injury), the GALAP rating ([4]; rate 0.100 kg/ha) was 8 (8 - Approaching complete kill) and the GALAP rating ([4]; rate 0.400 kg/ha) was 8 (8 - Approaching complete kill). For the same compound, the IPOHE rating ([5]; rate 0.025 kg/ha) was 6 (6 - Herbicidal effect), the IPOHE rating ([5]; rate 0.100 kg/ha) was 9 (9 - Complete kill) and the IPOHE rating ([5]; rate 0.400 kg/ha) was 9 (9 - Complete kill). For the same compound, the MATIN rating ([6]; rate 0.025 kg/ha) was 8 (8 - Approaching complete kill), the MATIN rating ([6]; rate 0.100 kg/ha) was 8 (8 - Approaching complete kill) and the MATIN rating ([6]; rate 0.400 kg/ha) was 8 (8 - Approaching complete kill). For the same compound, the SETVI rating ([7]; rate 0.025 kg/ha) was 8 (8 - Approaching complete kill), the SETVI rating ([7]; rate 0.100 kg/ha) was 9 (9 - Complete kill) and the SETVI rating ([7]; rate 0.400 kg/ha) was 9 (9 - Complete kill). The STEME rating ([8]; rate 0.025 kg/ha) was 9 (9 - Complete kill), the STEME rating ([8]; rate 0.100 kg/ha) was 9 (9 - Complete kill) and the STEME rating ([8]; rate 0.400 kg/ha) was 9 (9 - Complete kill). The GLXMA rating ([9]; rate 0.025 kg/ha) was 1 (1 - Trace effect), the GLXMA rating ([9]; rate 0.100 kg/ha) was 2 (2 - Slight effect) and the GLXMA rating ([9]; rate 0.400 kg/ha) was 3 (3 - Moderate effect). For the same compound, the TRZAW rating ([10]; rate 0.025 kg/ha) was 0 (0 - No effect), the TRZAW rating ([10]; rate 0.100 kg/ha) was 0 (0 - No effect) and the TRZAW rating ([10]; rate 0.400 kg/ha) was 2 (2 - Slight effect). The ZEAMX rating (Zea mays (ZEAMX, maize); rate 0.025 kg/ha) was 2 (2 - Slight effect), the ZEAMX rating (Zea mays (ZEAMX, maize); rate 0.100 kg/ha) was 2 (2 - Slight effect) and the ZEAMX rating (Zea mays (ZEAMX, maize); rate 0.400 kg/ha) was 4 (4 - Injury). The ABUTH rating ([11]; rate 0.025 kg/ha) was 5 (5 - Definite injury), the ABUTH rating ([11]; rate 0.100 kg/ha) was 7 (7 - Good herbicidal effect) and the ABUTH rating ([11]; rate 0.400 kg/ha) was 8 (8 - Approaching complete kill). The ALOMY rating ([12]; rate 0.025 kg/ha) was 6 (6 - Herbicidal effect), the ALOMY rating ([12]; rate 0.100 kg/ha) was 8 (8 - Approaching complete kill) and the ALOMY rating ([12]; rate 0.400 kg/ha) was 8 (8 - Approaching complete kill). The LOLMU rating [13] was 8 (8 - Approaching complete kill), the ECHCG rating ([14]; rate 0.025 kg/ha) was 8 (8 - Approaching complete kill) and the ECHCG rating ([14]; rate 0.100 kg/ha) was 8 (8 - Approaching complete kill). For the same compound, the ECHCG rating ([14]; rate 0.400 kg/ha) was 9 (9 - Complete kill), the GALAP rating ([15]; rate 0.025 kg/ha) was 7 (7 - Good herbicidal effect) and the GALAP rating ([15]; rate 0.100 kg/ha) was 8 (8 - Approaching complete kill). The GALAP rating ([15]; rate 0.400 kg/ha) was 9 (9 - Complete kill), the IPOHE rating ([16]; rate 0.025 kg/ha) was 5 (5 - Definite injury) and the IPOHE rating ([16]; rate 0.100 kg/ha) was 7 (7 - Good herbicidal effect). The IPOHE rating ([16]; rate 0.400 kg/ha) was 9 (9 - Complete kill), the MATIN rating ([17]; rate 0.025 kg/ha) was 4 (4 - Injury) and the MATIN rating ([17]; rate 0.100 kg/ha) was 7 (7 - Good herbicidal effect). For the same compound, the MATIN rating ([17]; rate 0.400 kg/ha) was 8 (8 - Approaching complete kill), the SETVI rating ([18]; rate 0.025 kg/ha) was 5 (5 - Definite injury) and the SETVI rating ([18]; rate 0.100 kg/ha) was 7 (7 - Good herbicidal effect). The SETVI rating ([18]; rate 0.400 kg/ha) was 9 (9 - Complete kill), the STEME rating ([19]; rate 0.025 kg/ha) was 5 (5 - Definite injury) and the STEME rating ([19]; rate 0.100 kg/ha) was 5 (5 - Definite injury). For the same compound, the STEME rating ([19]; rate 0.400 kg/ha) was 8 (8 - Approaching complete kill), the “weed control (in words)” value (eight weed species; crop selective dose of 0.1 kg/ha) was “high levels of activity” and the “weed control (in words)” value (eight weed species; wheat selective dose of 0.4 kg/ha) was “complete weed control”.
